Each structure is given as a SMILES string.

Test system in the first experiment: not listed separately
The experiment can be described thus: DRUGMATRIX: ATPase, Na+/K+ enzyme inhibition (substrate: ATP). It is filed as tissue-based, Sus scrofa, Heart. The settings on record: Not Active = under 50% inhibition at 10 µM.
Regarding `NCC1(CC(=O)O)CCCCC1` [GABAPENTIN], the IC50 entry is listed as “Not Active” and the Ki result was “Not Active”.

Take `CN1C(C(=O)Nc2ccccn2)=C(O)c2ccccc2S1(=O)=O` [PIROXICAM]: the IC50 entry is recorded as “Not Active” and the Ki entry was “Not Active”.

For the compound `N=C(N)NCCCCNC(=N)N.O=S(=O)(O)O` [ARCAINE SULFATE], the IC50 result is recorded as “Not Active” and the Ki entry is recorded as “Not Active”.

As for `CC=CC(=O)N(CC)c1ccccc1C`, the IC50 entry is given as “Not Active” and the Ki result is “Not Active”.

Test system in the next experiment: not listed separately
The experiment can be described thus: DRUGMATRIX: Glutamate, AMPA radioligand binding (ligand: [3H] AMPA). It is filed as cell membranes, Rattus norvegicus, Wistar, Cerebral cortex, Membrane. To be noted: Not Active = under 50% inhibition at 10 µM.
On to `NCC1(CC(=O)O)CCCCC1` [GABAPENTIN], for which the IC50 entry is “Not Active” and the Ki entry is “Not Active”.

Take `CN1C(C(=O)Nc2ccccn2)=C(O)c2ccccc2S1(=O)=O` [PIROXICAM]: the IC50 result is recorded as “Not Active” and the Ki entry is “Not Active”.

Take `N=C(N)NCCCCNC(=N)N.O=S(=O)(O)O` [ARCAINE SULFATE]: the IC50 result is “Not Active” and the Ki result is on record as “Not Active”.

`CC=CC(=O)N(CC)c1ccccc1C`: the IC50 entry is listed as “Not Active” and the Ki result was “Not Active”.

A further experiment concerns the target T1, Leukotriene C4 synthase (Cavia porcellus, UniProt A6XA80).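 Further: enzyme inhibition assay of leukotriene C4 synthase, using LTA4 as the substrate; in other assays of this panel Not Active means under 50% inhibition at 10 µM.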
T1 sequence (A6XA80 whole entry): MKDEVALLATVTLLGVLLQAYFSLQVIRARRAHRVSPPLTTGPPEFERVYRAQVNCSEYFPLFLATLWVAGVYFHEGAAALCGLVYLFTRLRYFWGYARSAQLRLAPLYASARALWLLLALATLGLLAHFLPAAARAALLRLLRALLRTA
The experiment can be described thus: biochemical. It is filed as tissue-based, Lung.
Details: not given
For the compound `NCC1(CC(=O)O)CCCCC1` [GABAPENTIN], the IC50 entry was “Not Active”.

As to `CN1C(C(=O)Nc2ccccn2)=C(O)c2ccccc2S1(=O)=O` [PIROXICAM], the IC50 result is recorded as “Not Active”.

Turning to `N=C(N)NCCCCNC(=N)N.O=S(=O)(O)O` [ARCAINE SULFATE], the IC50 entry is “Not Active”.

With `CC=CC(=O)N(CC)c1ccccc1C`, the IC50 entry is “Not Active”.

The target of a further experiment is C-C chemokine receptor type 2 (Homo sapiens, UniProt P41597). Further: in other assays of this panel Not Active means under 50% inhibition at 10 µM.
Chain of C-C chemokine receptor type 2 (P41597 whole entry): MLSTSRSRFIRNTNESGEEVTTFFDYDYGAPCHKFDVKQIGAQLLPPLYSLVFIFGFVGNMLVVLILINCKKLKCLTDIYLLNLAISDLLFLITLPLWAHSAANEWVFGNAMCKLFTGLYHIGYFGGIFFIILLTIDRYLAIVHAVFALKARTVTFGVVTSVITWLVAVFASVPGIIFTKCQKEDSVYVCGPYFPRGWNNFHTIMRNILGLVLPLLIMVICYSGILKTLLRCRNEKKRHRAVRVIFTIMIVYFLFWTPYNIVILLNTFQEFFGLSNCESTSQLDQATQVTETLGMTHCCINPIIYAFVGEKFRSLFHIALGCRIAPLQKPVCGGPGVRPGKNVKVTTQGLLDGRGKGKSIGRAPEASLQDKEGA
Test: not given
Type of experiment: cell membranes, CHO-K1, Membrane. The settings on record: cho-k1.
Regarding `NCC1(CC(=O)O)CCCCC1` [GABAPENTIN], the IC50 result is listed as “Not Active”.

In the case of `CN1C(C(=O)Nc2ccccn2)=C(O)c2ccccc2S1(=O)=O` [PIROXICAM], the IC50 entry was “Not Active”.

On to `N=C(N)NCCCCNC(=N)N.O=S(=O)(O)O` [ARCAINE SULFATE], for which the IC50 entry is “Not Active”.

Take `CC=CC(=O)N(CC)c1ccccc1C`: the IC50 entry is reported as “Not Active”.

The target of a further experiment is Insulin receptor (Rattus norvegicus, UniProt P15127). Further: in other assays of this panel Not Active means under 50% inhibition at 10 µM.
Chain of Insulin receptor (P15127 27-759 limits assumed): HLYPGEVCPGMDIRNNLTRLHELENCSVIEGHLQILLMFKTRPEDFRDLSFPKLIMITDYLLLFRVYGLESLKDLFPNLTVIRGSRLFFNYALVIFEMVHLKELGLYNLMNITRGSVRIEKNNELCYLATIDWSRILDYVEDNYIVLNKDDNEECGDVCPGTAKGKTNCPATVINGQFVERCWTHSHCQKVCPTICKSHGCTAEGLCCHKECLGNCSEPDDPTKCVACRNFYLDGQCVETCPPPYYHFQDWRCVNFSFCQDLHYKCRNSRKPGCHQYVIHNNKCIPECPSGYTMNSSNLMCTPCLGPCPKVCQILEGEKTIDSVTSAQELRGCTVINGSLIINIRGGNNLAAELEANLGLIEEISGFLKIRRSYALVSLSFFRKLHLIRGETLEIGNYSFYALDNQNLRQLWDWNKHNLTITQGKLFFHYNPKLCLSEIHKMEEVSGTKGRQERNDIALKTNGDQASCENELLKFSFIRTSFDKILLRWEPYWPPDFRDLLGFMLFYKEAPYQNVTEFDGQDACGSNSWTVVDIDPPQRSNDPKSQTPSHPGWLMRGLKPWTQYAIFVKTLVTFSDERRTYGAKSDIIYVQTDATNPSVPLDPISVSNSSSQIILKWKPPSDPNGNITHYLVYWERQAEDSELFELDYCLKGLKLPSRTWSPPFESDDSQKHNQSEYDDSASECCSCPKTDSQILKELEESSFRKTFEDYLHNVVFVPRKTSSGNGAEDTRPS
Chain of Insulin receptor (P15127 764-1383 limits assumed): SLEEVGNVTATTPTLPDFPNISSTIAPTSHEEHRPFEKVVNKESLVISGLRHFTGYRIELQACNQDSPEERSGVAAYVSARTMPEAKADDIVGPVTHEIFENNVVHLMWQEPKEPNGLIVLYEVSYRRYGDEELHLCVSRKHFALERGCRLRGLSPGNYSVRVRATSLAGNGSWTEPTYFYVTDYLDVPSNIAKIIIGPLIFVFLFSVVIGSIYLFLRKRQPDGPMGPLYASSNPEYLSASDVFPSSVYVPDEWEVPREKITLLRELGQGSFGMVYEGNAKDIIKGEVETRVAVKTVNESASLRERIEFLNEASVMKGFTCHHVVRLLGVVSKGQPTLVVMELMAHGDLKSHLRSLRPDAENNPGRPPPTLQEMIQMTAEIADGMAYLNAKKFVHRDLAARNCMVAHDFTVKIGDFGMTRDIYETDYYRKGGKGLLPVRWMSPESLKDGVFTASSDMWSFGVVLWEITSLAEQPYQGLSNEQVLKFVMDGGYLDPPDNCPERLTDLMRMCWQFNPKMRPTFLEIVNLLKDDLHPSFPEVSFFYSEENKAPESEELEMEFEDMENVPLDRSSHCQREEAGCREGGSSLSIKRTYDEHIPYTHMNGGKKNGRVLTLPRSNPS
Test: not given
Type of experiment: cell membranes, Wistar, Liver, Membrane.
Details: not given
For `NCC1(CC(=O)O)CCCCC1` [GABAPENTIN], the IC50 result is “Not Active”.

For the compound `CN1C(C(=O)Nc2ccccn2)=C(O)c2ccccc2S1(=O)=O` [PIROXICAM], the IC50 result was “Not Active”.

Consider `N=C(N)NCCCCNC(=N)N.O=S(=O)(O)O` [ARCAINE SULFATE], for which the IC50 entry is recorded as “Not Active”.

Regarding `CC=CC(=O)N(CC)c1ccccc1C`, the IC50 result is reported as “Not Active”.

The target of a further experiment is T2, Neuropeptide Y receptor type 1 (Homo sapiens, UniProt P25929). Further: in other assays of this panel Not Active means under 50% inhibition at 10 µM.
T2 sequence (P25929 whole entry): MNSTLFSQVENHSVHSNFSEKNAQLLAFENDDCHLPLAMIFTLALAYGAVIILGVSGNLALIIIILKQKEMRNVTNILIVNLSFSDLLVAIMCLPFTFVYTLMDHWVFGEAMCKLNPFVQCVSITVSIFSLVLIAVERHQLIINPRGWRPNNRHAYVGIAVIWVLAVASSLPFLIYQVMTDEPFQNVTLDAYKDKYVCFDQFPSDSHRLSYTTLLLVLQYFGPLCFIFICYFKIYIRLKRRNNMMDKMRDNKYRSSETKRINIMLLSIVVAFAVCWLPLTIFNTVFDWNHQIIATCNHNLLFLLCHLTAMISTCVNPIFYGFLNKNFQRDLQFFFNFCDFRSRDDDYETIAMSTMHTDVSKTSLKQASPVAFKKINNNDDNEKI
Test: not given
Type of experiment: cell membranes, Membrane. The settings on record: sk-n-mc.
Consider `NCC1(CC(=O)O)CCCCC1` [GABAPENTIN], for which the IC50 result is reported as “Not Active”.

For `CN1C(C(=O)Nc2ccccn2)=C(O)c2ccccc2S1(=O)=O` [PIROXICAM], the IC50 entry is “Not Active”.

In the case of `N=C(N)NCCCCNC(=N)N.O=S(=O)(O)O` [ARCAINE SULFATE], the IC50 result is on record as “Not Active”.

Turning to `CC=CC(=O)N(CC)c1ccccc1C`, the IC50 entry is “Not Active”.

The target of another experiment is T3, Neutrophil elastase (Homo sapiens, UniProt P08246).
T3 sequence (P08246 whole entry): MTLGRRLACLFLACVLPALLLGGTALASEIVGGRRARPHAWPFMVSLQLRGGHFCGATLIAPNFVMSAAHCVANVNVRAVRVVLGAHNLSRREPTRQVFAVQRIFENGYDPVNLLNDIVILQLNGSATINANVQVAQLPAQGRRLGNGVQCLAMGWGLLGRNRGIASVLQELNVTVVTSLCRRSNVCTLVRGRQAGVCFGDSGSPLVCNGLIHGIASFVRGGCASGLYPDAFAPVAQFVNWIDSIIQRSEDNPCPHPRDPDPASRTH
Test: not given
It is filed as tissue-based.
Details: not given
As to `NCC1(CC(=O)O)CCCCC1` [GABAPENTIN], the IC50 result was “Not Active”.

For the compound `CN1C(C(=O)Nc2ccccn2)=C(O)c2ccccc2S1(=O)=O` [PIROXICAM], the IC50 entry is “Not Active”.

On to `N=C(N)NCCCCNC(=N)N.O=S(=O)(O)O` [ARCAINE SULFATE], for which the IC50 result was “Not Active”.

`CC=CC(=O)N(CC)c1ccccc1C`: the IC50 result is “Not Active”.

The target of the next experiment is cGMP-specific 3',5'-cyclic phosphodiesterase (Homo sapiens, UniProt O76074). Put plainly: DRUGMATRIX: Phosphodiesterase PDE5 enzyme inhibition (substrate: [3H]cGMP + cGMP). Type of experiment: tissue-based, Platelet. To be noted: platelet; Not Active = under 50% inhibition at 10 µM.
On to `NCC1(CC(=O)O)CCCCC1` [GABAPENTIN], for which the IC50 entry is “Not Active”.

As to `CN1C(C(=O)Nc2ccccn2)=C(O)c2ccccc2S1(=O)=O` [PIROXICAM], the IC50 result is reported as “Not Active”.

In the case of `N=C(N)NCCCCNC(=N)N.O=S(=O)(O)O` [ARCAINE SULFATE], the IC50 result is given as “Not Active”.

On to `CC=CC(=O)N(CC)c1ccccc1C`, for which the IC50 entry was “Not Active”.

Test system in a further experiment: not listed separately
Put plainly: DRUGMATRIX: Phorbol Ester radioligand binding (ligand: [3H] PDBu). Type of experiment: cell membranes, Mus musculus, ICR, Brain, Membrane. The settings on record: Not Active = under 50% inhibition at 10 µM.
Consider `NCC1(CC(=O)O)CCCCC1` [GABAPENTIN], for which the IC50 result was “Not Active” and the Ki result is listed as “Not Active”.

`CN1C(C(=O)Nc2ccccn2)=C(O)c2ccccc2S1(=O)=O` [PIROXICAM]: the IC50 entry is “Not Active” and the Ki result is listed as “Not Active”.

Regarding `N=C(N)NCCCCNC(=N)N.O=S(=O)(O)O` [ARCAINE SULFATE], the IC50 entry is listed as “Not Active” and the Ki result is on record as “Not Active”.

Take `CC=CC(=O)N(CC)c1ccccc1C`: the IC50 entry is given as “Not Active” and the Ki result is recorded as “Not Active”.

The next experiment has as its target T4, Nitric oxide synthase, inducible (Mus musculus, UniProt P29477).
T4 sequence (P29477 whole entry): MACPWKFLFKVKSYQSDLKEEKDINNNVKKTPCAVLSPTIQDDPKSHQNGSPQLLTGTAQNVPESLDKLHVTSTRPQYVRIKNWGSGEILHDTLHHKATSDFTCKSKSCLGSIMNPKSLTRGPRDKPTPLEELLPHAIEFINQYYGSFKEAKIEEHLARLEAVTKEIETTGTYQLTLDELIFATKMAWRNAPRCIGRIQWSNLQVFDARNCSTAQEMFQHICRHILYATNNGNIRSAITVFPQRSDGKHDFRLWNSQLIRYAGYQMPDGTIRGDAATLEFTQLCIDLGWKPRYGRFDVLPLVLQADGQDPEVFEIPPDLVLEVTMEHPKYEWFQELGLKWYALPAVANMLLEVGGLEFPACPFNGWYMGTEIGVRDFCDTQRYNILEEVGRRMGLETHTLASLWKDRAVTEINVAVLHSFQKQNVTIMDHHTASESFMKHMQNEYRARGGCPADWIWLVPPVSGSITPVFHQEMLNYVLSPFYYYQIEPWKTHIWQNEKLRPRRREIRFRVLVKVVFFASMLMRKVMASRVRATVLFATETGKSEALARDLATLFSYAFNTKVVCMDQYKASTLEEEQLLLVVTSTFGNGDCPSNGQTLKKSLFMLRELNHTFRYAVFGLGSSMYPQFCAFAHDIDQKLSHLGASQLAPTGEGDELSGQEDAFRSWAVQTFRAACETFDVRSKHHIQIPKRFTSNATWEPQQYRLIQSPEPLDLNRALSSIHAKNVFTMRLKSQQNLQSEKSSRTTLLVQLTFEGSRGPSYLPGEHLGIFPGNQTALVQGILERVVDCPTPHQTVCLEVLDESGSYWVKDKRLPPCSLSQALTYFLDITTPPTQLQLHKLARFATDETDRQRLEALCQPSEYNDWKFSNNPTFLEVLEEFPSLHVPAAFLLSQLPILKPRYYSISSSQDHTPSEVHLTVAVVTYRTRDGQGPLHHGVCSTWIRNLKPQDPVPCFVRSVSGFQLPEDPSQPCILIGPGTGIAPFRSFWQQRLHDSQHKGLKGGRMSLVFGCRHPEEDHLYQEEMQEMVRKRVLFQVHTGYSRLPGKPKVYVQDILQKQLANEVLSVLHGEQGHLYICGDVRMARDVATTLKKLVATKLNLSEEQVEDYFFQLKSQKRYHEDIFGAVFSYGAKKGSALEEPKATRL
Test: not given
Details: species or system Escherichia coli.
Details: not given
Consider `NCC1(CC(=O)O)CCCCC1` [GABAPENTIN], for which the IC50 result was “Not Active”.

On to `CN1C(C(=O)Nc2ccccn2)=C(O)c2ccccc2S1(=O)=O` [PIROXICAM], for which the IC50 entry is listed as “Not Active”.

Regarding `N=C(N)NCCCCNC(=N)N.O=S(=O)(O)O` [ARCAINE SULFATE], the IC50 entry is given as “Not Active”.

Consider `CC=CC(=O)N(CC)c1ccccc1C`, for which the IC50 result is listed as “Not Active”.

The target in the next experiment is T5, C-C chemokine receptor type 4 (Homo sapiens, UniProt P51679). Further: in other assays of this panel Not Active means under 50% inhibition at 10 µM.
T5 sequence (P51679 whole entry): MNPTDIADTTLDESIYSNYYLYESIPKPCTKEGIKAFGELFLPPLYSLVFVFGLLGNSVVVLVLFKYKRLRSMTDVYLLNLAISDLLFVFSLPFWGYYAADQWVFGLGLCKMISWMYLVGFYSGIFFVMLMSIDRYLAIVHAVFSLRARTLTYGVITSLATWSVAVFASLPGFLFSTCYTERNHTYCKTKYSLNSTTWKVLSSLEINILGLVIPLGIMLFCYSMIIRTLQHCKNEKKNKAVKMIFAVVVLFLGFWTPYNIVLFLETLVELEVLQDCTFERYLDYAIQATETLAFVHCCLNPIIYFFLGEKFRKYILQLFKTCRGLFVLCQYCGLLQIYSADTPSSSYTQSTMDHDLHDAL
Test: not given
To be noted: chem-1. It is filed as cell membranes, Membrane.
`NCC1(CC(=O)O)CCCCC1` [GABAPENTIN]: the IC50 result was “Not Active”.

As to `CN1C(C(=O)Nc2ccccn2)=C(O)c2ccccc2S1(=O)=O` [PIROXICAM], the IC50 entry is “Not Active”.

As for `N=C(N)NCCCCNC(=N)N.O=S(=O)(O)O` [ARCAINE SULFATE], the IC50 entry was “Not Active”.

For the compound `CC=CC(=O)N(CC)c1ccccc1C`, the IC50 entry is “Not Active”.

Test system in another experiment: not listed separately
The experiment can be described thus: DRUGMATRIX: Glutamate, Kainate radioligand binding (ligand: [3H] Kainic acid). It is filed as cell membranes, Rattus norvegicus, Wistar, Brain, Membrane. The settings on record: Not Active = under 50% inhibition at 10 µM.
For the compound `NCC1(CC(=O)O)CCCCC1` [GABAPENTIN], the IC50 result is “Not Active” and the Ki entry was “Not Active”.

Take `CN1C(C(=O)Nc2ccccn2)=C(O)c2ccccc2S1(=O)=O` [PIROXICAM]: the IC50 entry is “Not Active” and the Ki entry is given as “Not Active”.

Consider `N=C(N)NCCCCNC(=N)N.O=S(=O)(O)O` [ARCAINE SULFATE], for which the IC50 entry is listed as “Not Active” and the Ki entry is “Not Active”.

Turning to `CC=CC(=O)N(CC)c1ccccc1C`, the IC50 result is recorded as “Not Active” and the Ki entry is reported as “Not Active”.

(Values after ChEMBL document CHEMBL1909046, “DrugMatrix in vitro pharmacology data”.)
